{"source": "PubChem BioAssay (NCI)", "assay_in_all_cases": "DTP human tumour cell line panel, 48 h", "key": {"786-0 renal": {"test_system": "786-0 renal"}, "HOP-62 NSCLC": {"test_system": "HOP-62 NSCLC"}, "KM12 colon": {"test_system": "KM12 colon"}, "M14 melanoma": {"test_system": "M14 melanoma"}, "MALME-3M melanoma": {"test_system": "MALME-3M melanoma"}, "MOLT-4 leukemia": {"test_system": "MOLT-4 leukemia"}, "NCI-H522 lung": {"test_system": "NCI-H522 lung"}, "SK-OV-3 ovarian": {"test_system": "SK-OV-3 ovarian"}, "DU-145 prostate": {"test_system": "DU-145 prostate"}, "HS 578T breast": {"test_system": "HS 578T breast"}}, "note": "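Growth conditions: 96-well plates. Treatment: test compound, 48 hours, 5 concentrations. Analysis: linear interpolation between bracketing concentrations; unreached endpoints set to highest concentration. TGI: concentration producing complete growth inhibition.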", "data": [{"compound": "CCOC(=O)CCC1(C(=O)OCC)CCCC1=O", "note": "(stereo not drawn)", "values": [{"measurement": "TGI", "setting": "786-0 renal", "result": "> 100", "unit": "µM"}, {"measurement": "TGI", "setting": "HOP-62 NSCLC", "result": "> 100", "unit": "µM"}, {"measurement": "TGI", "setting": "KM12 colon", "result": "> 100", "unit": "µM"}, {"measurement": "TGI", "setting": "M14 melanoma", "result": "> 100", "unit": "µM"}, {"measurement": "TGI", "setting": "MALME-3M melanoma", "result": "> 100", "unit": "µM"}, {"measurement": "TGI", "setting": "MOLT-4 leukemia", "result": "> 100", "unit": "µM"}, {"measurement": "TGI", "setting": "NCI-H522 lung", "result": "> 100", "unit": "µM"}, {"measurement": "TGI", "setting": "SK-OV-3 ovarian", "result": "> 100", "unit": "µM"}]}, {"compound": "COc1cc(C2C(Cl)C(=O)N2NC(=O)c2ccc(NC(C)=O)cc2)ccc1O", "note": "(stereo not drawn)", "values": [{"measurement": "TGI", "setting": "786-0 renal", "result": "> 100", "unit": "µM"}, {"measurement": "TGI", "setting": "HOP-62 NSCLC", "result": "> 100", "unit": "µM"}, {"measurement": "TGI", "setting": "M14 melanoma", "result": "> 100", "unit": "µM"}, {"measurement": "TGI", "setting": "MALME-3M melanoma", "result": "> 100", "unit": "µM"}, {"measurement": "TGI", "setting": "MOLT-4 leukemia", "result": "> 100", "unit": "µM"}, {"measurement": "TGI", "setting": "NCI-H522 lung", "result": "> 100", "unit": "µM"}, {"measurement": "TGI", "setting": "SK-OV-3 ovarian", "result": "> 100", "unit": "µM"}]}, {"compound": "O=C1CC(C(CC(=O)c2ccccc2)c2ccccc2)C(=O)c2ccccc2N1", "note": "(stereo not drawn)", "values": [{"measurement": "TGI", "setting": "786-0 renal", "result": "> 100", "unit": "µM"}, {"measurement": "TGI", "setting": "DU-145 prostate", "result": "> 100", "unit": "µM"}, {"measurement": "TGI", "setting": "HOP-62 NSCLC", "result": "> 100", "unit": "µM"}, {"measurement": "TGI", "setting": "HS 578T breast", "result": "> 100", "unit": "µM"}, {"measurement": "TGI", "setting": "KM12 colon", "result": "> 100", "unit": "µM"}, {"measurement": "TGI", "setting": "M14 melanoma", "result": "> 100", "unit": "µM"}, {"measurement": "TGI", "setting": "MALME-3M melanoma", "result": "> 100", "unit": "µM"}, {"measurement": "TGI", "setting": "MOLT-4 leukemia", "result": 61.2, "unit": "µM"}, {"measurement": "TGI", "setting": "SK-OV-3 ovarian", "result": "> 100", "unit": "µM"}]}, {"compound": "CC1(C)C2CCC3(OCCO3)C1C(O)C2", "note": "(stereo not drawn)", "values": [{"measurement": "TGI", "setting": "786-0 renal", "result": "> 100", "unit": "µM"}, {"measurement": "TGI", "setting": "HOP-62 NSCLC", "result": "> 100", "unit": "µM"}, {"measurement": "TGI", "setting": "KM12 colon", "result": "> 100", "unit": "µM"}, {"measurement": "TGI", "setting": "M14 melanoma", "result": "> 100", "unit": "µM"}, {"measurement": "TGI", "setting": "MALME-3M melanoma", "result": "> 100", "unit": "µM"}, {"measurement": "TGI", "setting": "MOLT-4 leukemia", "result": "> 100", "unit": "µM"}, {"measurement": "TGI", "setting": "NCI-H522 lung", "result": "> 100", "unit": "µM"}]}, {"compound": "COc1ccc(C2OCCN2C)cc1", "note": "(stereo not drawn)", "values": [{"measurement": "TGI", "setting": "786-0 renal", "result": "> 100", "unit": "µM"}, {"measurement": "TGI", "setting": "HOP-62 NSCLC", "result": "> 100", "unit": "µM"}, {"measurement": "TGI", "setting": "HS 578T breast", "result": "> 100", "unit": "µM"}, {"measurement": "TGI", "setting": "KM12 colon", "result": "> 100", "unit": "µM"}, {"measurement": "TGI", "setting": "M14 melanoma", "result": "> 100", "unit": "µM"}, {"measurement": "TGI", "setting": "MALME-3M melanoma", "result": "> 100", "unit": "µM"}, {"measurement": "TGI", "setting": "MOLT-4 leukemia", "result": "> 100", "unit": "µM"}, {"measurement": "TGI", "setting": "NCI-H522 lung", "result": "> 100", "unit": "µM"}, {"measurement": "TGI", "setting": "SK-OV-3 ovarian", "result": "> 100", "unit": "µM"}]}, {"compound": "CC(=O)OC12c3ccccc3C(c3ccccc31)C1C(=O)N(c3ccccn3)C(=O)C12", "note": "(stereo not drawn)", "values": [{"measurement": "TGI", "setting": "786-0 renal", "result": "> 100", "unit": "µM"}, {"measurement": "TGI", "setting": "DU-145 prostate", "result": "> 100", "unit": "µM"}, {"measurement": "TGI", "setting": "HOP-62 NSCLC", "result": "> 100", "unit": "µM"}, {"measurement": "TGI", "setting": "HS 578T breast", "result": "> 100", "unit": "µM"}, {"measurement": "TGI", "setting": "KM12 colon", "result": "> 100", "unit": "µM"}, {"measurement": "TGI", "setting": "M14 melanoma", "result": "> 100", "unit": "µM"}, {"measurement": "TGI", "setting": "MALME-3M melanoma", "result": "> 100", "unit": "µM"}, {"measurement": "TGI", "setting": "MOLT-4 leukemia", "result": "> 100", "unit": "µM"}, {"measurement": "TGI", "setting": "SK-OV-3 ovarian", "result": "> 100", "unit": "µM"}]}, {"compound": "[O-][n+]1c(CN2CCCCC2)nc2cccc3c2c1-c1ccccc1-3", "values": [{"measurement": "TGI", "setting": "786-0 renal", "result": 51.5, "unit": "µM"}, {"measurement": "TGI", "setting": "DU-145 prostate", "result": 41.5, "unit": "µM"}, {"measurement": "TGI", "setting": "HOP-62 NSCLC", "result": 48.6, "unit": "µM"}, {"measurement": "TGI", "setting": "KM12 colon", "result": "> 100", "unit": "µM"}, {"measurement": "TGI", "setting": "M14 melanoma", "result": 31.3, "unit": "µM"}, {"measurement": "TGI", "setting": "MALME-3M melanoma", "result": 29, "unit": "µM"}, {"measurement": "TGI", "setting": "MOLT-4 leukemia", "result": "> 100", "unit": "µM"}, {"measurement": "TGI", "setting": "SK-OV-3 ovarian", "result": 92.5, "unit": "µM"}]}, {"compound": "COC(=O)CC(C(C(=O)OCc1ccccc1)C(C)O)N1C(=O)OC(c2ccccc2)C1c1ccccc1", "note": "(stereo not drawn)", "values": [{"measurement": "TGI", "setting": "786-0 renal", "result": "> 100", "unit": "µM"}, {"measurement": "TGI", "setting": "HOP-62 NSCLC", "result": "> 100", "unit": "µM"}, {"measurement": "TGI", "setting": "M14 melanoma", "result": "> 100", "unit": "µM"}, {"measurement": "TGI", "setting": "MALME-3M melanoma", "result": "> 100", "unit": "µM"}, {"measurement": "TGI", "setting": "MOLT-4 leukemia", "result": "> 100", "unit": "µM"}]}, {"compound": "CC(=O)NC(CCCCN)C(=O)NCc1ccccc1", "note": "(stereo not drawn)", "values": [{"measurement": "TGI", "setting": "786-0 renal", "result": "> 100", "unit": "µM"}, {"measurement": "TGI", "setting": "HOP-62 NSCLC", "result": "> 100", "unit": "µM"}, {"measurement": "TGI", "setting": "KM12 colon", "result": "> 100", "unit": "µM"}, {"measurement": "TGI", "setting": "M14 melanoma", "result": "> 100", "unit": "µM"}, {"measurement": "TGI", "setting": "MALME-3M melanoma", "result": "> 100", "unit": "µM"}, {"measurement": "TGI", "setting": "MOLT-4 leukemia", "result": "> 100", "unit": "µM"}, {"measurement": "TGI", "setting": "NCI-H522 lung", "result": "> 100", "unit": "µM"}, {"measurement": "TGI", "setting": "SK-OV-3 ovarian", "result": "> 100", "unit": "µM"}]}, {"compound": "CCCCCCCCCC(=O)N[C@@H](c1ccco1)[C@@H](O)C(=O)O[C@H]1C[C@@]2(O)[C@@H](OC(=O)c3ccccc3)[C@@H]3[C@]4(OC(C)=O)CO[C@@H]4C[C@H](O)[C@@]3(C)C(=O)[C@H](OC(C)=O)C(=C1C)C2(C)C", "values": [{"measurement": "TGI", "setting": "786-0 renal", "result": 7.95, "unit": "µM"}, {"measurement": "TGI", "setting": "HOP-62 NSCLC", "result": 1.68, "unit": "µM"}, {"measurement": "TGI", "setting": "HS 578T breast", "result": 0.0857, "unit": "µM"}, {"measurement": "TGI", "setting": "KM12 colon", "result": 8.44, "unit": "µM"}, {"measurement": "TGI", "setting": "MALME-3M melanoma", "result": 12.4, "unit": "µM"}, {"measurement": "TGI", "setting": "MOLT-4 leukemia", "result": 2.3, "unit": "µM"}, {"measurement": "TGI", "setting": "NCI-H522 lung", "result": 0.631, "unit": "µM"}, {"measurement": "TGI", "setting": "SK-OV-3 ovarian", "result": "> 18.7", "unit": "µM"}]}]}
